Measured values published in patent publication US10017527B2, “KLK4 inhibitors” (Universiteit Antwerpen, priority 2014, dated 2018).
Like-named read-outs stand apart in the source and are kept apart here.

Key:
Type in all cases: biochemical
KLK8 (human) = target: T1, KLK8 (human) (Homo sapiens, UniProt O60259); assay: KLK8 inhibition, fluorogenic substrate Boc-Val-Pro-Arg-AMC
T1 construct: purchased Viktor Magdolen, TUMunich (TUM), supplied by an academic laboratory
T1 sequence (O60259 33-260): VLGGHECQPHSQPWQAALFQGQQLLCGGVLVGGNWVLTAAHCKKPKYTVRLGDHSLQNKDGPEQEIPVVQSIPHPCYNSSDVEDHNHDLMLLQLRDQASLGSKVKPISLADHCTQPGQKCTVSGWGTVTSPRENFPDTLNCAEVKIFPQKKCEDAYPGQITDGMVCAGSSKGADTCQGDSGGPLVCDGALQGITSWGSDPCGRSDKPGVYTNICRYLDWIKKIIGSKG
Text: (§1) The IC50 values For KLK1, KLK2 and KLK8 were obtained in a similar way. For plasmin, tPA, thrombin, Fxa, HNE, Plasma kallikrein Chromogenic substrates were used (absorption: 405 nm). (KLK2, KLK4, KLK8 were supplied by Viktor Magdolen TUMunich (TUM)).

AcHE = AcHE (Homo sapiens, UniProt P22303); assay: AcHE inhibition
tPA (recombinant) = target: T2, tPA (recombinant) (Homo sapiens, UniProt P00750); assay: tPA inhibition, chromogenic substrate Biophen CS-05(88)
T2 construct: purchased Nodia
Text: as §1

Thrombine (human plasma) = target: T3, Thrombine (human plasma) (Homo sapiens, UniProt P00734); assay: Thrombin inhibition, chromogenic substrate Biophen CS-21(66)
T3 construct: purchased Sigma-Aldrich; host or cells: human plasma

[1] = target: T4, Neurtophil Elastase(human) (Homo sapiens, UniProt P08246); assay: Neutrophil elastase inhibition, chromogenic substrate MeOSuc-Ala-Ala-Pro-Val-pNA
T4 construct: purchased Enzo-life sciences
T4 sequence (P08246 30-267): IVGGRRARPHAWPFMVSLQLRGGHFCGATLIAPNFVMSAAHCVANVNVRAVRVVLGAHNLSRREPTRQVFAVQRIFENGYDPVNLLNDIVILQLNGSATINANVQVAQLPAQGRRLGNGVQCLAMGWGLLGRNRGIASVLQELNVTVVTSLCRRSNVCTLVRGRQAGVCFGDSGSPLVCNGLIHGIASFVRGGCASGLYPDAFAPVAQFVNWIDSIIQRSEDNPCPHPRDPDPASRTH
Text: as §1

uPA (recombinant) = target: T5, uPA (recombinant) (Homo sapiens, UniProt P00749); assay: uPA inhibition, chromogenic substrate Biophen CS-61(44)
T5 construct: purchased Nodia

Matriptase = target: T6, Matriptase (Homo sapiens, UniProt Q9Y5Y6); assay: Matriptase inhibition
T6 sequence (Q9Y5Y6 1-855): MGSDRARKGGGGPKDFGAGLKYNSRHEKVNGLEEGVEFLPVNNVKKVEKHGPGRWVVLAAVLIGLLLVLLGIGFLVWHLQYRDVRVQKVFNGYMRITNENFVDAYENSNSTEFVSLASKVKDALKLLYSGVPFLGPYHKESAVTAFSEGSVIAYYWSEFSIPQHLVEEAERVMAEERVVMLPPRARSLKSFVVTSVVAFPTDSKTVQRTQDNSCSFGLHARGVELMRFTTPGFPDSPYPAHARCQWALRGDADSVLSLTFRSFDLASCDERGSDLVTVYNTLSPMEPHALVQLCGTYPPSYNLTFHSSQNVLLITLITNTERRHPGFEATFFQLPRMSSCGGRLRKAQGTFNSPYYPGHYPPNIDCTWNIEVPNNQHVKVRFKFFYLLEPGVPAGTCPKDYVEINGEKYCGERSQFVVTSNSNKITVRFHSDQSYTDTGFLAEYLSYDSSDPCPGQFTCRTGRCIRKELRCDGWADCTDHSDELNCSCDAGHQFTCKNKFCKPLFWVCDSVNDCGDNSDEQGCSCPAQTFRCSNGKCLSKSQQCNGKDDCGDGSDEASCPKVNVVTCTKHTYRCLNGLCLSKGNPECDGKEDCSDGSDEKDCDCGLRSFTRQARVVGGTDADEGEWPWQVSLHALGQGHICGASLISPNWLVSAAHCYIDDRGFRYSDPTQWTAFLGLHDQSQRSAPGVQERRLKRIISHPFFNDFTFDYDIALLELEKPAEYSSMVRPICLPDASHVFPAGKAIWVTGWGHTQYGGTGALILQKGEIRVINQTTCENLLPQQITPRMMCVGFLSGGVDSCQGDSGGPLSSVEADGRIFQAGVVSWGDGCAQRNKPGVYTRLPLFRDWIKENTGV

Plasmine (human plasma) = target: T7, Plasmine (human plasma) (Homo sapiens, UniProt P00747); assay: Plasmin inhibition, chromogenic substrate Biophen CS-21(66)
T7 construct: purchased Sigma-Aldrich; host or cells: human plasma
Text: as §1

KLK1 (human) = target: T8, KLK1 (human) (Homo sapiens, UniProt P06870); assay: KLK1 inhibition, fluorogenic substrate H-Pro-Phe-Arg-AMC
T8 construct: purchased Prospec
Text: as §1

KLK4 [2] = target: T9, KLK4 (Homo sapiens, UniProt Q9Y5K2); assay: KLK4 inactivation kinetics from progress curves (kobs vs inhibitor concentration)
T9 construct: purchased Viktor Magdolen (TUM), supplied by an academic laboratory
Procedure: (§2) Inhibitor stock solutions were prepared in DMSO and stored at −20° C. Because the compounds described in this paper completely inactivate KLK4 following pseudo first-order kinetics, the IC50 value is inversely correlated with the second-order rate constant of inactivation. For a simple pseudo first-order inactivation process, the activity after incubation with inhibitor (vi) varies with the inhibitor concentration (i), as described in the following equation: vi=v0×e^−k t, where vo is the activity in absence of inhibitor, k is the second-order rate constant of inactivation, and t is the time. The inactivation rate constant was determined from the time course of inhibition.
The inhibitor was mixed with the substrate (250 μM final concentration), and the buffer solution with the enzyme was added at the time zero. […] The progress curves show the absorbance of aminomethylcoumarine produced as a function of time. Initially, no inhibitor is bound to the enzyme, and the tangent to the progress curve (dA/dt) is proportional to the concentration of the free enzyme. The concentration of free enzyme decreases over time due to the kinetics of inhibitor binding, as described above. Progress curves were recorded in pseudo first-order conditions ([I]0>>[E]0) and with less than 10% conversion of the substrate during the entire time course. In these conditions, dA/dt decreases exponentially with time. The progress curves were fitted with the integrated rate equation to yield a value for kobs, a pseudofirst-order rate constant At=v0[1−e^−k^obs^t]/kobs+A0 where At=absorbance at time t, A0=absorbance at time zero, and v0=uninhibited initial rate.
The apparent second-order rate constant (kapp) was calculated from the slope of the linear part of the plot of kobs versus the inhibitor concentration ([I]0). In case of competition between the inhibitor and the substrate, kapp is smaller than the “real” second order rate constant k discussed above because a certain fraction of the enzyme is present as an enzyme-substrate complex. kapp depends on the substrate concentration used in the experiment, as described by Lambeir et al. (Lambeir, Borloo et al. 1996).

FXa = target: T10, FXa (Homo sapiens, UniProt P00742); assay: FXa inhibition, chromogenic substrate Biophen CS-11(32)
T10 construct: purchased Nodia
Text: as §1

KLK4 [3] = target: T9, KLK4; assay: KLK4 enzymatic inhibition, fluorogenic substrate Boc-Val-Pro-Arg-AMC
Procedure: The substrate was obtained form Bachem and the enzyme was provided by Viktor Magdolen (TUM). The reaction was monitored with an excitation wavelength of 355 nm and emission wavelength of 460 nm. The initial rate was determined between 2500000 and 4500000 mRFU/min. The reaction mixture contained 25 μM substrate and approximately 1 mU of enzyme in 145 μL of buffer in a final volume of […]. A 50 mM Tris buffer, pH 8.3, was used. From each inhibitor concentration, 5 μL was added, obtaining a final concentration from 0 to 250 μM in a total volume of 0.2 mL. Activity measurements were routinely performed in duplicate. […] IC50 values were obtained by fitting the data with the four-parameter logistics equation using Grafit 7.
[formula] where s=slope factor, v=rate, I0=inhibitor concentration, and range=the fitted uninhibited value minus the background. The equation assumes they falls with increasing x.
as §2

PlasmaKLK (human plasma) = target: T11, PlasmaKLK (human plasma) (Homo sapiens, UniProt P03952); assay: Plasma kallikrein inhibition, chromogenic substrate Biophen CS-31(02)
T11 construct: purchased Sigma-Aldrich; host or cells: human plasma
Text: as §1

T9 sequence (Q9Y5K2 31-254): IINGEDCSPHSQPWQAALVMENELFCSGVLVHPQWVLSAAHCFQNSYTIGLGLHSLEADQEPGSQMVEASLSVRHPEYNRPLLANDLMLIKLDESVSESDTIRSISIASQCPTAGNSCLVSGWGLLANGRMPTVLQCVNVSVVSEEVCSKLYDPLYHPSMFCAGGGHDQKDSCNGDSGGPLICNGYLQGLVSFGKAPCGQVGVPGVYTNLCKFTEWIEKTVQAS
T10 sequence (P00742 235-488 limits assumed): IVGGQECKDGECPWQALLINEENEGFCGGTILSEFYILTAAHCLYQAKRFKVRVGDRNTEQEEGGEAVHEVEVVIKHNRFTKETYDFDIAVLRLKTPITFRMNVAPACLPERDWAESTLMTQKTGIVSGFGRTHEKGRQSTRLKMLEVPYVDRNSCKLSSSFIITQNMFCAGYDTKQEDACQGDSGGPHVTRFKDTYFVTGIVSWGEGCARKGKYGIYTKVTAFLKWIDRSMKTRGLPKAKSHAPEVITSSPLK
T10 sequence (P00742 41-179 partner limits assumed): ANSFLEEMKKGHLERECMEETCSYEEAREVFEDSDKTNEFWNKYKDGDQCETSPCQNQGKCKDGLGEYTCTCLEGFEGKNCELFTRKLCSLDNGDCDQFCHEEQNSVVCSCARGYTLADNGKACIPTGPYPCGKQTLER
T11 sequence (P03952 391-638 limits assumed): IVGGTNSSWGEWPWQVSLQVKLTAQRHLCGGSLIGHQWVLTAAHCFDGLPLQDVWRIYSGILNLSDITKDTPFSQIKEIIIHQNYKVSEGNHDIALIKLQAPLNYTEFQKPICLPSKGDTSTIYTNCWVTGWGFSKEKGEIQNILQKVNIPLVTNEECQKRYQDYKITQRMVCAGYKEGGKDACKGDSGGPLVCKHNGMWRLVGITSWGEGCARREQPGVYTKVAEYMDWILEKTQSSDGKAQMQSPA
T11 sequence (P03952 20-390 partner limits assumed): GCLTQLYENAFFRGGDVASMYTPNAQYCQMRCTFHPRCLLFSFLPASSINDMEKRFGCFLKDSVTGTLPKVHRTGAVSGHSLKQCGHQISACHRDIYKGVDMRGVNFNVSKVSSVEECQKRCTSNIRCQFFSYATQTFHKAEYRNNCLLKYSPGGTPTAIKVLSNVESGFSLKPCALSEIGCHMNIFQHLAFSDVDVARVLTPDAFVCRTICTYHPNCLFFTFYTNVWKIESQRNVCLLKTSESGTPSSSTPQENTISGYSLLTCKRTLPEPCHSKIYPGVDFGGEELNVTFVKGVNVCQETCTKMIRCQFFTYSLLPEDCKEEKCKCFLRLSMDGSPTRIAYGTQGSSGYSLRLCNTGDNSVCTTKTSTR
T7 sequence (P00747 581-810 limits assumed): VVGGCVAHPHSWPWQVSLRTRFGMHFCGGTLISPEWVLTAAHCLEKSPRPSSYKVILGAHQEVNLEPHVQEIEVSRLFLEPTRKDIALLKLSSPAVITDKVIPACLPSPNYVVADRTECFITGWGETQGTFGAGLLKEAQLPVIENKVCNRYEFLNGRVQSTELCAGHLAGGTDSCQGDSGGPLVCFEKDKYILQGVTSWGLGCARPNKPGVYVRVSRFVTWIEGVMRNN
T7 sequence (P00747 98-580 partner limits assumed): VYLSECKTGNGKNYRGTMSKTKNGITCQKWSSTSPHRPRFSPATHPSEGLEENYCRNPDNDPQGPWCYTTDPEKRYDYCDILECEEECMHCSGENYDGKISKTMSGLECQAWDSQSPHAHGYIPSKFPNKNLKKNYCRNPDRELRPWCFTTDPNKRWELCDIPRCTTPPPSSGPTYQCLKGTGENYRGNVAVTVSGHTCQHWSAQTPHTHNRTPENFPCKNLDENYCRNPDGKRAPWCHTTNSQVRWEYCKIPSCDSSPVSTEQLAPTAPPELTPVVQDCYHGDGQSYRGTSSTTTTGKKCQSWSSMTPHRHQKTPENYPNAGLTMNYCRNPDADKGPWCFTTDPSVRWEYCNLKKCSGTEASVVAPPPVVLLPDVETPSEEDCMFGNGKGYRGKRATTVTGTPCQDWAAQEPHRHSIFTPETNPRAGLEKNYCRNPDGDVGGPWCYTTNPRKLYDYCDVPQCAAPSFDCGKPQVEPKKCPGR
T2 sequence (P00750 36-562, species assumed): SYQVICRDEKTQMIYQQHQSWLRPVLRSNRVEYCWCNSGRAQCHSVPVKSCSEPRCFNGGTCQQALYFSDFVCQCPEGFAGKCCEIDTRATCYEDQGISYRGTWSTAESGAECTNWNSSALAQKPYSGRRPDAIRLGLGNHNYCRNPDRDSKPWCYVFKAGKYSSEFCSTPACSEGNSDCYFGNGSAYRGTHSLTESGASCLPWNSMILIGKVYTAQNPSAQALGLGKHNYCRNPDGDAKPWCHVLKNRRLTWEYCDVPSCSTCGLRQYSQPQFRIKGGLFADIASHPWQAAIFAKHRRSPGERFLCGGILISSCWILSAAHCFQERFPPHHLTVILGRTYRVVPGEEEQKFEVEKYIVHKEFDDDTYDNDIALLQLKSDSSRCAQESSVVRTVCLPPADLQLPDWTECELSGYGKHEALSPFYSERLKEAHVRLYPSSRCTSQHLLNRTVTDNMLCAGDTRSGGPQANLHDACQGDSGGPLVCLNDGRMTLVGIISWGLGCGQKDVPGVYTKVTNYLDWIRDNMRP
T8 sequence (P06870 25-262): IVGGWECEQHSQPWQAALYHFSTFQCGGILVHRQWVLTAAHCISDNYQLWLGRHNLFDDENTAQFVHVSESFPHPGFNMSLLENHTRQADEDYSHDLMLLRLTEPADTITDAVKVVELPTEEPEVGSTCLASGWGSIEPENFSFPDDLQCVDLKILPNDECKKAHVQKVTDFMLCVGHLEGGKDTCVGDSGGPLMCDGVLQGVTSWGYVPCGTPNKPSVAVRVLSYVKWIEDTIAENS
Sequence of AcHE (P22303 32-614): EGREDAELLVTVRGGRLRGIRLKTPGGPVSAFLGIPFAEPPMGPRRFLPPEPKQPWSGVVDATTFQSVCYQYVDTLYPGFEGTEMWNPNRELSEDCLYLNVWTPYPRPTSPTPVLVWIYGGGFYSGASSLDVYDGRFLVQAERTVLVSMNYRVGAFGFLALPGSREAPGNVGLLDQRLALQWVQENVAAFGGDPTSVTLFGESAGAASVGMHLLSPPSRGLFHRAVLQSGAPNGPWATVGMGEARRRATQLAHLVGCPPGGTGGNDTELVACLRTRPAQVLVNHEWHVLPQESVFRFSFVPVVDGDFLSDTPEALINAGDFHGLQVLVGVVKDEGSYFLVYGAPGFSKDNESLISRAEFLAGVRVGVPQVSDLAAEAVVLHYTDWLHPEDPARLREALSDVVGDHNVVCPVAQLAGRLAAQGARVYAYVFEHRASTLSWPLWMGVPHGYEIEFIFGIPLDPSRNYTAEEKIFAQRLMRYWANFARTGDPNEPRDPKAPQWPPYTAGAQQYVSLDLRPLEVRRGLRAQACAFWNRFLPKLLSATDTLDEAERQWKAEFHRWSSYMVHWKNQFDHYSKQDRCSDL

Row | Molecule | IC50 (AcHE) | IC50 (tPA (recombinant)) | IC50 (Thrombine (human plasma)) | IC50 (uPA (recombinant)) | IC50 (Matriptase) | IC50 (Plasmine (human plasma)) | IC50 (KLK1 (human)) | IC50 (FXa) | IC50 (KLK4 [3]) | IC50 (PlasmaKLK (human plasma)) | other results
1 | 2-((1E,3E,5Z)-5-(1-(6-((2-(4-(1-(diphenoxyphosphoryl)-1-(4-guanidinophenyl)-3-oxo-4,7,10-trioxa-2-azaundecan-11-yl)-1H-1,2,3-triazol-1-yl)ethyl)amino)-6-oxohexyl)-3,3-dimethylindolin-2-ylidene)penta-1,3-dien-1-yl)-1,3,3-trimethyl-3H-indol-1-ium [Compound 134] |  |  |  |  |  |  |  |  |  |  | IC50 (KLK8 (human); Tris buffer pH 8, read-out: IC50 KLK8): 2.5 to 10 µM; IC50 (AcHE; read-out: IC50 AcHE): 10 to 250 µM; IC50 (tPA (recombinant); Tris buffer pH 8.3, read-out: IC50 tPA): > 250 µM; IC50 (Thrombine (human plasma); Thrombin, Tris buffer pH 8.3, read-out: IC50 THR): 10 to 250 µM; IC50 ([1]; Tris buffer pH 7.8, read-out: IC50 HNE): 10 to 250 µM; IC50 (uPA (recombinant); Tris buffer pH 8.8, read-out: IC50 uPA): 2.5 to 10 µM; IC50 (Matriptase; Matriptase, read-out: IC50 MAT): 2.5 to 10 µM; IC50 (Plasmine (human plasma); Plasmin, Tris buffer pH 7.4, read-out: IC50 PLM): 10 to 250 µM; IC50 (KLK1 (human); Tris buffer pH 7.8, read-out: IC50 KLK1): 2.5 to 10 µM; kapp KLK4 (KLK4 [2]; apparent second-order rate constant, substrate 250 μM): 2240 M⁻¹ s⁻¹; Irreversible (KLK4) (KLK4 [2]; irreversible binding to KLK4, Yes/No): Yes/; IC50 (FXa; Tris buffer pH 8.3, read-out: IC50 FXa): 2.5 to 10 µM; IC50 (KLK4 [3]; 15 min pre-incubation at 37° C., Tris buffer pH 8.3, read-out: IC50 KLK4): 0.1 to 1 µM; IC50 (PlasmaKLK (human plasma); Plasma KLK, Tris buffer pH 7.8, read-out: IC50 pKLK): 10 to 250 µM
2 | CCCCCC(=O)NCCOC(=O)NC(c1ccc(NC(=N)N)cc1)P(=O)(Oc1ccccc1)Oc1ccccc1 (stereo not drawn) [Compound 31, 2-hexanamidoethyl ((diphenoxyphosphoryl)(4-guanidinophenyl)methyl) carbamate 2,2,2-trifluoroacetaat] | 10 to 250 µM | > 250 µM | > 250 µM | 10 to 250 µM | 2.5 to 10 µM | > 250 µM | 10 to 250 µM | 10 to 250 µM | 0.1 to 1 µM | 10 to 250 µM | IC50 (KLK8 (human)): 10 to 250 µM; IC50 [1]: 10 to 250 µM
3 | N=C(N)Nc1ccc(C(NC(=O)OCCOCCOCc2cn(CCOCCOCCOCCNC(=O)CN3CCN(CC(=O)O)CCN(CC(=O)O)CCN(CC(=O)O)CC3)nn2)P(=O)(Oc2ccccc2)Oc2ccccc2)cc1 (stereo not drawn) [Compound 83, 2,2′,2″-(10-(14-(4-(1-(diphenoxyphosphoryl)-1-(4-guanidinophenyl)-3-oxo-4,7,10-trioxa-2-azaundecan-11-yl)-1H-1,2,3-triazol-1-yl)-2-oxo-6,9,12-trioxa-3-azatetradecyl)-1,4,7,10-tetraazacyclododecane-1,4,7-triyl)triacetic acid] | 10 to 250 µM | 2.5 to 10 µM | 10 to 250 µM | 2.5 to 10 µM | 2.5 to 10 µM | 10 to 250 µM | 2.5 to 10 µM | 10 to 250 µM | < 0.1 µM | 10 to 250 µM | 
